Assay results reported in patent US20240067632A1, “WEE1 Degrading Compounds and Uses Thereof” (Bristol-Myers Squibb Company, priority 2022, published 2024).
Read-outs that look alike come from different tables or passages of the source.

How the values were obtained:
MKN45 cells = assay: MKN45 cell proliferation assay (Cell-Titer-Glo, 120 h); format: cell-based; details: for EC50: Homo sapiens, MKN-45, 120 h, Cell-Titer-Glo, read-out: MKN45 Cell Prolif. 120 hr (EC50); for MKN45 Cell Prolif. 120 hr (Ymin-Obs): minimal percent of DMSO control observed in the concentrations tested
How it was run: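 Growth inhibition was read as blank-corrected Cell-Titer-Glo luminescence expressed as percent DMSO control after 120 h at 37 C, 400 cells/well. Compounds tested in triplicate as 10-point half-log series from 1 or 10 uM, 0.1% DMSO; four-parameter fit gave EC50, and lowest observed percent control was reported as Ymin-obs.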

WEE1 = target: T1, WEE1 (Homo sapiens, UniProt P30291+Q96SW2); assay: WEE1-ePL degradation assay (LentiX-WEE1-ePL-GSPT1-ND cells, InCELL Hunter luminescence, 4 h); format: cell-based; details: 293T-LentiX WEE1-ePL cells; for DC50: read-out: 293T-LentiX WEE1-ePL Degradation 4 hr (EC50)
T1 construct: C-terminal ePL-tagged (DiscoverX, Fremont, CA) full-length WEE1 expression construct; expressed in transfected cells; host or cells: LentiX-HEK293T (Invitrogen), lentiviral transduction; co-expressing GSPT1-GN (G576N, lacking the first 158 amino acids)
How it was run: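 Degradation EC50 was fitted by a four-parameter logistic model, with the upper limit taken from DMSO wells. Luminescence was read with InCELL Hunter reagent after 30 min at room temperature, following a 4 h, 37° C exposure of 2500 cells/well. Cells were LentiX-HEK293T carrying ePL-tagged full-length WEE1, dosed in 10 points (3-fold) from 1 or 10 uM.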

[1] = lower limit of the fit (Ymin=0 luciferase inhibitor, Ymax DMSO control)
[2] = lower limit of the fit (0 = luciferase inhibitor, Ymax = DMSO control)

Row | SMILES | EC50 (MKN45 cells) [nM] | 293T-LentiX WEE1-ePL Degradation 4 hr (Ymin) (WEE1; [1]) | DC50 (WEE1) [nM] | EC50 (MKN45 cells; growth inhibition) [nM] | 293T-LentiX WEE1-ePL Degradation 4 hr (Ymin) (WEE1; [2]) | MKN45 Cell Prolif. 120 hr (Ymin-Obs) (MKN45 cells)
1 | COC[C@@H]1CC[C@H](c2ccc3cc(CN4CC[C@H](Oc5ccc6c(c5)CN(C5CCC(=O)NC5=O)C6=O)C4)ccc3n2)C1 (stereo partly drawn) [3-(5-{[(3S)-1-({2-[(1S,3R)-3-(methoxymethyl)cyclopentyl]quinolin-6-yl}methyl)pyrrolidin-3-yl]oxy}-1-oxo-2,3-dihydro-1H-isoindol-2-yl)piperidine-2,6-dione] | 2.56 | 32.37 | 5.9 | – | – | 8.786
2 | O=C1CCC(N2Cc3cc(O[C@H]4CCN(Cc5ccc6nc([C@H]7CCC[C@@H](O)C7)ccc6c5)C4)ccc3C2=O)C(=O)N1 (stereo partly drawn) [3-(5-{[(3S)-1-({2-[(1S,3R)-3-hydroxycyclohexyl]quinolin-6-yl}methyl)pyrrolidin-3-yl]oxy}-1-oxo-2,3-dihydro-1H-isoindol-2-yl)piperidine-2,6-dione] | – | – | 9.66 | 11.1 | 32 | 7.93
3 | O=C1CCC(N2Cc3cc(O[C@H]4CCN(Cc5ccc6nc([C@H]7CC[C@@H](O)C7)ccc6c5)C4)ccc3C2=O)C(=O)N1 (stereo partly drawn) [3-(5-{[(3S)-1-({2-[(1S,3R)-3-hydroxycyclopentyl]quinolin-6-yl}methyl)pyrrolidin-3-yl]oxy}-1-oxo-2,3-dihydro-1H-isoindol-2-yl)piperidine-2,6-dione] | – | – | 2.99 | 2.66 | 31 | 7.68
4 | CO[C@@H]1CCC[C@H](c2ccc3cc(CN4CC[C@H](Oc5ccc6c(c5)CN(C5CCC(=O)NC5=O)C6=O)C4)ccc3n2)C1 (stereo partly drawn) [3-(5-{[(3S)-1-({2-[(1S,3R)-3-methoxycyclohexyl]quinolin-6-yl}methyl)pyrrolidin-3-yl]oxy}-1-oxo-2,3-dihydro-1H-isoindol-2-yl)piperidine-2,6-dione] | – | – | 28.7 | 16.5 | 32 | 9.143
5 | CO[C@@H]1CC[C@H](c2ccc3cc(CN4CC[C@H](Oc5ccc6c(c5)CN(C5CCC(=O)NC5=O)C6=O)C4)ccc3n2)C1 (stereo partly drawn) [3-(5-{[(3S)-1-({2-[(1S,3R)-3-methoxycyclopentyl]quinolin-6-yl}methyl)pyrrolidin-3-yl]oxy}-1-oxo-2,3-dihydro-1H-isoindol-2-yl)piperidine-2,6-dione] | – | – | 2.07 | 1.61 | 29.67 | 8.776
6 | COC[C@H]1CCC[C@H](c2ccc3cc(CN4CC[C@H](Oc5ccc6c(c5)CN(C5CCC(=O)NC5=O)C6=O)C4)ccc3n2)C1 (stereo partly drawn) [3-(5-{[(3S)-1-({2-[(1S,3S)-3-(methoxymethyl)cyclohexyl]quinolin-6-yl}methyl)pyrrolidin-3-yl]oxy}-1-oxo-2,3-dihydro-1H-isoindol-2-yl)piperidine-2,6-dione] | 5.71 | 32.49 | 7.61 | – | – | 11.34
7 | COC[C@H]1CC[C@H](c2ccc3cc(CN4CC[C@H](Oc5ccc6c(c5)CN(C5CCC(=O)NC5=O)C6=O)C4)ccc3n2)C1 (stereo partly drawn) [3-(5-{[(3S)-1-({2-[(1S,3S)-3-(methoxymethyl)cyclopentyl]quinolin-6-yl}methyl)pyrrolidin-3-yl]oxy}-1-oxo-2,3-dihydro-1H-isoindol-2-yl)piperidine-2,6-dione] | 2.52 | 33.9 | 6.8 | – | – | 8.033
8 | O=C1CCC(N2Cc3cc(O[C@H]4CCN(Cc5ccc6nc([C@H]7CC[C@H](O)C7)ccc6c5)C4)ccc3C2=O)C(=O)N1 (stereo partly drawn) [3-(5-{[(3S)-1-({2-[(1S,3S)-3-hydroxycyclopentyl]quinolin-6-yl}methyl)pyrrolidin-3-yl]oxy}-1-oxo-2,3-dihydro-1H-isoindol-2-yl)piperidine-2,6-dione] | – | – | 2.67 | 3.24 | 27.5 | 8.695
9 | CO[C@H]1CCC[C@H](c2ccc3cc(CN4CC[C@H](Oc5ccc6c(c5)CN(C5CCC(=O)NC5=O)C6=O)C4)ccc3n2)C1 (stereo partly drawn) [3-(5-{[(3S)-1-({2-[(1S,3S)-3-methoxycyclohexyl]quinolin-6-yl}methyl)pyrrolidin-3-yl]oxy}-1-oxo-2,3-dihydro-1H-isoindol-2-yl)piperidine-2,6-dione] | – | – | 3.58 | 2.01 | 30.5 | 9.255
10 | CO[C@H]1CC[C@H](c2ccc3cc(CN4CC[C@H](Oc5ccc6c(c5)CN(C5CCC(=O)NC5=O)C6=O)C4)ccc3n2)C1 (stereo partly drawn) [3-(5-{[(3S)-1-({2-[(1S,3S)-3-methoxycyclopentyl]quinolin-6-yl}methyl)pyrrolidin-3-yl]oxy}-1-oxo-2,3-dihydro-1H-isoindol-2-yl)piperidine-2,6-dione] | – | – | 6.19 | 4.8 | 32.5 | 8.927

The next lines start with results.

Row | EC50 (MKN45 cells) [nM] | 293T-LentiX WEE1-ePL Degradation 4 hr (Ymin) (WEE1; [1]) | DC50 (WEE1) [nM] | EC50 (MKN45 cells; growth inhibition) [nM] | 293T-LentiX WEE1-ePL Degradation 4 hr (Ymin) (WEE1; [2]) | SMILES | MKN45 Cell Prolif. 120 hr (Ymin-Obs) (MKN45 cells)
11 | – | – | 12.3 | 9.86 | 34.5 | O=C1CCC(N2Cc3cc(O[C@H]4CCN(Cc5ccc6nc(N7C[C@@H]8C[C@H]7CO8)ncc6c5)C4)ccc3C2=O)C(=O)N1 (stereo partly drawn) [3-(5-{[(3S)-1-({2-[(1S,4S)-2-oxa-5-azabicyclo[2.2.1]heptan-5-yl]quinazolin-6-yl}methyl)pyrrolidin-3-yl]oxy}-1-oxo-2,3-dihydro-1H-isoindol-2-yl)piperidine-2,6-dione] | 9.576
12 | – | – | 2.98 | 5.54 | 34 | O=C1CCC(N2Cc3cc(O[C@H]4CCN(Cc5ccc6nc(N7C[C@@H]8C[C@H]7CO8)ccc6c5)C4)ccc3C2=O)C(=O)N1 (stereo partly drawn) [3-(5-{[(3S)-1-({2-[(1S,4S)-2-oxa-5-azabicyclo[2.2.1]heptan-5-yl]quinolin-6-yl}methyl)pyrrolidin-3-yl]oxy}-1-oxo-2,3-dihydro-1H-isoindol-2-yl)piperidine-2,6-dione] | 8.09
13 | – | – | 10.5 | 10.9 | 29.54 | C[C@@H]1CC(c2ccc3cc(CN4CC[C@H](Oc5ccc6c(c5)CN(C5CCC(=O)NC5=O)C6=O)C4)ccc3n2)CCO1 (stereo partly drawn) [3-(5-{[(3S)-1-({2-[(2R)-2-methyloxan-4-yl]quinolin-6-yl}methyl)pyrrolidin-3-yl]oxy}-1-oxo-2,3-dihydro-1H-isoindol-2-yl)piperidine-2,6-dione] | 14.5
14 | 5.09 | 25.33 | 5.2 | – | – | C[C@@H]1CC(c2ccc3cc(CN4CC[C@H](Oc5ccc6c(c5)CN(C5CCC(=O)NC5=O)C6=O)C4)ccc3n2)C[C@@H](C)O1 (stereo partly drawn) [3-(5-{[(3S)-1-({2-[(2R,6R)-2,6-dimethyloxan-4-yl]quinolin-6-yl}methyl)pyrrolidin-3-yl]oxy}-1-oxo-2,3-dihydro-1H-isoindol-2-yl)piperidine-2,6-dione] | 10.09
15 | – | – | 11.7 | 10.4 | 30.42 | C[C@@H]1CC(c2ccc3cc(CN4CC[C@H](Oc5ccc6c(c5)CN(C5CCC(=O)NC5=O)C6=O)C4)ccc3n2)C[C@H](C)O1 (stereo partly drawn) [3-(5-{[(3S)-1-({2-[(2R,6S)-2,6-dimethyloxan-4-yl]quinolin-6-yl}methyl)pyrrolidin-3-yl]oxy}-1-oxo-2,3-dihydro-1H-isoindol-2-yl)piperidine-2,6-dione] | 14.48
16 | – | – | 2.97 | 4.39 | 28.55 | C[C@H]1CC(c2ccc3cc(CN4CC[C@H](Oc5ccc6c(c5)CN(C5CCC(=O)NC5=O)C6=O)C4)ccc3n2)CCO1 (stereo partly drawn) [3-(5-{[(3S)-1-({2-[(2S)-2-methyloxan-4-yl]quinolin-6-yl}methyl)pyrrolidin-3-yl]oxy}-1-oxo-2,3-dihydro-1H-isoindol-2-yl)piperidine-2,6-dione] | 10.88
17 | 48.4 | 37.05 | 225 | – | – | CN1CC[C@@H](c2ncc3cc(CN4CC[C@H](Oc5ccc6c(c5)CN(C5CCC(=O)NC5=O)C6=O)C4)ccc3n2)C1 (stereo partly drawn) [3-(5-{[(3S)-1-({2-[(3R)-1-methylpyrrolidin-3-yl]quinazolin-6-yl}methyl)pyrrolidin-3-yl]oxy}-1-oxo-2,3-dihydro-1H-isoindol-2-yl)piperidine-2,6-dione] | 13.19
18 | – | – | 67.4 | 90.5 | 37 | CN1CC[C@@H](c2ccc3cc(CN4CC[C@H](Oc5ccc6c(c5)CN(C5CCC(=O)NC5=O)C6=O)C4)ccc3n2)C1 (stereo partly drawn) [3-(5-{[(3S)-1-({2-[(3R)-1-methylpyrrolidin-3-yl]quinolin-6-yl}methyl)pyrrolidin-3-yl]oxy}-1-oxo-2,3-dihydro-1H-isoindol-2-yl)piperidine-2,6-dione] | 11.69
